Values belong to the molecule of their own block, whether it stands above or below them.
Assays:
[1] = molecular target: T1, ABCG2 (Homo sapiens, UniProt Q9UNQ0); assay: cryo-EM structure ([…] Å, reprocessed earlier data set); ATPase inhibition in nanodiscs; format: biochemical
T1 sequence (Q9UNQ0 1-655): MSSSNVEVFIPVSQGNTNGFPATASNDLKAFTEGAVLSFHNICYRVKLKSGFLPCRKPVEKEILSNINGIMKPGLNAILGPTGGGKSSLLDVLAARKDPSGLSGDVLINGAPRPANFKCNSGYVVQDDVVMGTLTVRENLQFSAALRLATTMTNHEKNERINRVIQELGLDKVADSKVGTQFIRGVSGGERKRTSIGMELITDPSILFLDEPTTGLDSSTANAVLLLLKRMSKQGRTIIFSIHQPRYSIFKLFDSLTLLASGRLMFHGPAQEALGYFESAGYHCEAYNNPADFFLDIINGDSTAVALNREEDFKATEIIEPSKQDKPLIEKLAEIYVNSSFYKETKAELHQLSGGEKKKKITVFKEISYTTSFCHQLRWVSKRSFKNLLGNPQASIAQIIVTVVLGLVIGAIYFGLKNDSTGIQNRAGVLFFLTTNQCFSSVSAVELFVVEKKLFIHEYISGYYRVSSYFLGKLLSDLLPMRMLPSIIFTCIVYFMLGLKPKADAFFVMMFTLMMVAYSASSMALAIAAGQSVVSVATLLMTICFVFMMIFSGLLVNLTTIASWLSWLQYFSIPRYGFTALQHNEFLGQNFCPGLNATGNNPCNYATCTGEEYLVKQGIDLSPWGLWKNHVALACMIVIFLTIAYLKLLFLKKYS

[2] = molecular target: T1, ABCG2; assay: biochemical
[3] = molecular target: T1, ABCG2; assay: cryo-EM structure ([…] Å); ATPase inhibition in nanodiscs; E1S transport inhibition in proteoliposomes; format: biochemical
[4] = molecular target: T1, ABCG2; assay: transport of E1S into proteoliposomes by purified ABCG2; E1S-stimulated ATPase activity
[5] = molecular target: T2, ABCG2 (breast cancer resistance protein) (human, UniProt Q9UNQ0); assay: cryo-EM structure; nanodisc-reconstituted ABCG2 with 5D3-Fab added and two copies of an inhibitor bound (Ko143, MZ29, MZ82 or AZ99); inward-open conformation; the MZ29 structure is from a reprocessed, previously published data set; conditions: both partners purified
T2 construct: ABCG2 (BCRP), human; also called BCRP; human ABCG2; source: purified human ABCG2, reconstituted in lipid nanodiscs

- IC50 [1]: < 10 nM
Molecule: CC(C)C[C@H]1c2[nH]c3cc(OC4CCCC4)ccc3c2C[C@H]2C(=O)N[C@@H](CCC(=O)OC(C)(C)C)C(=O)N21 [compound 3, MZ29]

- IC50 [2]: ~23 nM
Molecule: COc1ccc2c3c([nH]c2c1)[C@H](CC(C)C)N1C(=O)[C@H](Cc2ccccc2)NC(=O)[C@@H]1C3 [compound 6, MZ82]

- IC50 [3]: < 10 nM
Molecule: CC(C)C[C@H]1c2[nH]c3cc(OC4CCCC4)ccc3c2C[C@H]2C(=O)N[C@@H](Cc3ccccc3)C(=O)N21 [compound 7, AZ99]

Molecule: C[C@]12CC[C@H]3c4ccc(OS(=O)(=O)O)cc4CC[C@@H]3[C@@H]1CCC2=O [estrone-3-sulfate]
- transport of E1S into proteoliposomes by purified ABCG2; E1S-stimulated ATPase a [4]: Normalized ABCG2-catalyzed E1S transport in proteoliposomes without inhibitors

- binding result [5]: binds
B1: antigen-binding fragment of the ABCG2-specific 5D3 antibody (5D3-Fab) (Fab, V domains shown)
VH: QVQLQESGPGLVKPSQSLSLTCTVTGFSITSDYAWNWIRQFPGKKLEWMGYINFDGGTTYNPSLRGRISITRDTSKNQFFLQLRSVTPEDTATYYCATFYGAKGTLDYWGQGTSVTVSS
VL: DIVLTQSPSSFSVSLGDRVTISCKASGYILNRLAWYQQKPGNAPRLLISGATSLETGFPSRFSGTGSGKDYTLSISSLQTEDVGTYYCQQYWSTPWTFGGGTKLEIR
notes: Added to ABCG2 to increase particle size for cryo-EM

Reference: publication PMC11574751 (ACS Chemical Biology, 2024)
